Test results as given in patent US20070049564A1 (Wyeth, priority 2005, published 2007).
In brackets after ≈: the same amount, converted by molar mass. Where two headings read alike, the source gives them in different places.

Assays:
E. coli GC 1073 = assay: MIC, broth microdilution; settings: Escherichia coli
S. epidermidis GC 4935 = assay: MIC, broth microdilution; settings: Staphylococcus epidermidis
Staph. = assay: Range of MIC for Staph. strains, including MRSA; settings: Staphylococcus aureus
c. albicans GC 3066 = assay: MIC, broth microdilution
E. coli GC 2236 = assay: MIC, broth microdilution; settings: Escherichia coli
S. pneumoniae+ GC 4465 = assay: MIC, broth microdilution; settings: Streptococcus pneumoniae
E. faecium GC 2243 = assay: MIC, broth microdilution; settings: Enterococcus faecium
S. aureus GC 6469 = assay: MIC, broth microdilution; settings: Staphylococcus aureus
E. coli GC 2272 = assay: MIC, broth microdilution; settings: Escherichia coli
E. coli GC 6465 = assay: MIC, broth microdilution; settings: Escherichia coli
S. aureus GC 1131 = assay: MIC, broth microdilution; settings: Staphylococcus aureus
S. aureus GC 4536 = assay: MIC, broth microdilution; settings: Staphylococcus aureus
E. coli GC 2233 = assay: MIC, broth microdilution; settings: Escherichia coli
S. pyogenes GC 4563 = assay: MIC, broth microdilution; settings: Streptococcus pyogenes
S. aureus GC 1079 = assay: MIC, broth microdilution; settings: Staphylococcus aureus
E. coli GC 2234 = assay: MIC, broth microdilution; settings: Escherichia coli
E. faecalis GC 2265 = assay: MIC, broth microdilution; settings: Enterococcus faecalis
E. faecalis GC 4555 = assay: MIC, broth microdilution; settings: Enterococcus faecalis
S. aureus GC 6466 = assay: MIC, broth microdilution; settings: Staphylococcus aureus
E. coli = assay: Range of MIC for E. coli strains; settings: Escherichia coli

MIC (E. coli GC 1073; GC1073, read-out: MINIMAL INHIBITORY CONCENTRATION MIC, Human Serum): > 64 µg/mL
MIC (E. coli GC 1073; GC1073, read-out: MINIMAL INHIBITORY CONCENTRATION MIC, Mouse Serum): > 64 µg/mL
MIC (E. coli GC 1073; GC1073, read-out: MINIMAL INHIBITORY CONCENTRATION MIC, Water): > 64 µg/mL
MIC (S. epidermidis GC 4935; GC4935, read-out: MINIMAL INHIBITORY CONCENTRATION MIC, Human Serum): 4 µg/mL (≈ 5.83 µM)
MIC (S. epidermidis GC 4935; GC4935, read-out: MINIMAL INHIBITORY CONCENTRATION MIC, Mouse Serum): 4 µg/mL (≈ 5.83 µM)
MIC (S. epidermidis GC 4935; GC4935, read-out: MINIMAL INHIBITORY CONCENTRATION MIC, Water): 8 µg/mL (≈ 11.7 µM)
MIC (Staph.; MRSA, read-out: Range of MIC, Staph (Mouse Serum)): 2 to 4 µg/mL (≈ 2.92 to 5.83 µM)
MIC (Staph.; MRSA, read-out: Range of MIC, Staph (Water)): 4 to 8 µg/mL (≈ 5.83 to 11.7 µM)
MIC (Staph.; read-out: Minimum inhibitory concentration (MIC), Staph (Human Serum)): 4 µg/mL (≈ 5.83 µM)
MIC (Staph.; read-out: Minimum inhibitory concentration (MIC), Staph (Water)): 4 to 8 µg/mL (≈ 5.83 to 11.7 µM)
MIC (c. albicans GC 3066; Candida albicans, GC3066, read-out: MINIMAL INHIBITORY CONCENTRATION MIC): > 64 µg/mL
MINIMAL INHIBITORY CONCENTRATION MIC (c. albicans GC 3066; Human Serum): >64 UG/ML
MINIMAL INHIBITORY CONCENTRATION MIC (c. albicans GC 3066; Mouse Serum): >64 UG/ML
MIC (E. coli GC 2236; GC2236, read-out: MINIMAL INHIBITORY CONCENTRATION MIC, Human Serum): > 64 µg/mL
MIC (E. coli GC 2236; GC2236, read-out: MINIMAL INHIBITORY CONCENTRATION MIC, Mouse Serum): > 64 µg/mL
MIC (E. coli GC 2236; GC2236, read-out: MINIMAL INHIBITORY CONCENTRATION MIC, Water): > 64 µg/mL
MIC (S. pneumoniae+ GC 4465; read-out: MINIMAL INHIBITORY CONCENTRATION MIC, Human Serum): 4 µg/mL (≈ 5.83 µM)
MIC (S. pneumoniae+ GC 4465; read-out: MINIMAL INHIBITORY CONCENTRATION MIC, Mouse Serum): 4 µg/mL (≈ 5.83 µM)
MIC (S. pneumoniae+ GC 4465; read-out: MINIMAL INHIBITORY CONCENTRATION MIC, Water): 8 µg/mL (≈ 11.7 µM)
MIC (E. faecium GC 2243; GC2243, read-out: MINIMAL INHIBITORY CONCENTRATION MIC, Human Serum): 4 µg/mL (≈ 5.83 µM)
MIC (E. faecium GC 2243; GC2243, read-out: MINIMAL INHIBITORY CONCENTRATION MIC, Mouse Serum): 2 µg/mL (≈ 2.92 µM)
MIC (E. faecium GC 2243; GC2243, read-out: MINIMAL INHIBITORY CONCENTRATION MIC, Water): 4 µg/mL (≈ 5.83 µM)
MIC (S. aureus GC 6469; GC6469, read-out: MINIMAL INHIBITORY CONCENTRATION MIC, Human Serum): 4 µg/mL (≈ 5.83 µM)
MIC (S. aureus GC 6469; GC6469, read-out: MINIMAL INHIBITORY CONCENTRATION MIC, Mouse Serum): 2 µg/mL (≈ 2.92 µM)
MIC (S. aureus GC 6469; GC6469, read-out: MINIMAL INHIBITORY CONCENTRATION MIC, Water): 4 µg/mL (≈ 5.83 µM)
MIC (E. coli GC 2272; GC2272, read-out: MINIMAL INHIBITORY CONCENTRATION MIC, Human Serum): > 64 µg/mL
MIC (E. coli GC 2272; GC2272, read-out: MINIMAL INHIBITORY CONCENTRATION MIC, Mouse Serum): > 64 µg/mL
MIC (E. coli GC 2272; GC2272, read-out: MINIMAL INHIBITORY CONCENTRATION MIC, Water): > 64 µg/mL
MIC (E. coli GC 6465; GC6465, read-out: MINIMAL INHIBITORY CONCENTRATION MIC, Human Serum): > 64 µg/mL
MIC (E. coli GC 6465; GC6465, read-out: MINIMAL INHIBITORY CONCENTRATION MIC, Mouse Serum): > 64 µg/mL
MIC (E. coli GC 6465; GC6465, read-out: MINIMAL INHIBITORY CONCENTRATION MIC, Water): > 64 µg/mL
MIC (S. aureus GC 1131; GC1131, read-out: MINIMAL INHIBITORY CONCENTRATION MIC, Human Serum): 4 µg/mL (≈ 5.83 µM)
MIC (S. aureus GC 1131; GC1131, read-out: MINIMAL INHIBITORY CONCENTRATION MIC, Mouse Serum): 2 µg/mL (≈ 2.92 µM)
MIC (S. aureus GC 1131; GC1131, read-out: MINIMAL INHIBITORY CONCENTRATION MIC, Water): 4 µg/mL (≈ 5.83 µM)
MIC (S. aureus GC 4536; GC4536, read-out: MINIMAL INHIBITORY CONCENTRATION MIC, Human Serum): 4 µg/mL (≈ 5.83 µM)
MIC (S. aureus GC 4536; GC4536, read-out: MINIMAL INHIBITORY CONCENTRATION MIC, Mouse Serum): 2 µg/mL (≈ 2.92 µM)
MIC (S. aureus GC 4536; GC4536, read-out: MINIMAL INHIBITORY CONCENTRATION MIC, Water): 4 µg/mL (≈ 5.83 µM)
MIC (E. coli GC 2233; GC2233, read-out: MINIMAL INHIBITORY CONCENTRATION MIC, Human Serum): > 64 µg/mL
MIC (E. coli GC 2233; GC2233, read-out: MINIMAL INHIBITORY CONCENTRATION MIC, Mouse Serum): > 64 µg/mL
MIC (E. coli GC 2233; GC2233, read-out: MINIMAL INHIBITORY CONCENTRATION MIC, Water): > 64 µg/mL
MIC (S. pyogenes GC 4563; GC4563, read-out: MINIMAL INHIBITORY CONCENTRATION MIC, Human Serum): 4 µg/mL (≈ 5.83 µM)
MIC (S. pyogenes GC 4563; GC4563, read-out: MINIMAL INHIBITORY CONCENTRATION MIC, Mouse Serum): 4 µg/mL (≈ 5.83 µM)
MIC (S. pyogenes GC 4563; GC4563, read-out: MINIMAL INHIBITORY CONCENTRATION MIC, Water): 4 µg/mL (≈ 5.83 µM)
MIC (S. aureus GC 1079; GC1079, read-out: MINIMAL INHIBITORY CONCENTRATION MIC, Human Serum): 4 µg/mL (≈ 5.83 µM)
MIC (S. aureus GC 1079; GC1079, read-out: MINIMAL INHIBITORY CONCENTRATION MIC, Mouse Serum): 2 µg/mL (≈ 2.92 µM)
MIC (S. aureus GC 1079; GC1079, read-out: MINIMAL INHIBITORY CONCENTRATION MIC, Water): 8 µg/mL (≈ 11.7 µM)
MIC (E. coli GC 2234; GC2234, read-out: MINIMAL INHIBITORY CONCENTRATION MIC, Human Serum): > 64 µg/mL
MIC (E. coli GC 2234; GC2234, read-out: MINIMAL INHIBITORY CONCENTRATION MIC, Mouse Serum): > 64 µg/mL
MIC (E. coli GC 2234; GC2234, read-out: MINIMAL INHIBITORY CONCENTRATION MIC, Water): > 64 µg/mL
MIC (E. faecalis GC 2265; GC2265, read-out: MINIMAL INHIBITORY CONCENTRATION MIC, Human Serum): 4 µg/mL (≈ 5.83 µM)
MIC (E. faecalis GC 2265; GC2265, read-out: MINIMAL INHIBITORY CONCENTRATION MIC, Mouse Serum): 4 µg/mL (≈ 5.83 µM)
MIC (E. faecalis GC 2265; GC2265, read-out: MINIMAL INHIBITORY CONCENTRATION MIC, Water): 4 µg/mL (≈ 5.83 µM)
MIC (E. faecalis GC 4555; GC4555, read-out: MINIMAL INHIBITORY CONCENTRATION MIC, Human Serum): 4 µg/mL (≈ 5.83 µM)
MIC (E. faecalis GC 4555; GC4555, read-out: MINIMAL INHIBITORY CONCENTRATION MIC, Mouse Serum): 4 µg/mL (≈ 5.83 µM)
MIC (E. faecalis GC 4555; GC4555, read-out: MINIMAL INHIBITORY CONCENTRATION MIC, Water): 8 µg/mL (≈ 11.7 µM)
MIC (S. aureus GC 6466; GC6466, read-out: MINIMAL INHIBITORY CONCENTRATION MIC, Human Serum): 4 µg/mL (≈ 5.83 µM)
MIC (S. aureus GC 6466; GC6466, read-out: MINIMAL INHIBITORY CONCENTRATION MIC, Mouse Serum): 2 µg/mL (≈ 2.92 µM)
MIC (S. aureus GC 6466; GC6466, read-out: MINIMAL INHIBITORY CONCENTRATION MIC, Water): 4 µg/mL (≈ 5.83 µM)
MIC (E. coli; 20 h, read-out: Range of MIC, E. coli (Mouse Serum)): > 64 µg/mL
MIC (E. coli; read-out: Minimum inhibitory concentration (MIC), E. coli (Human Serum)): > 64 µg/mL
MIC (E. coli; read-out: Minimum inhibitory concentration (MIC), E. coli (water)): > 64 µg/mL
MIC (E. coli; read-out: Range of MIC, E. coli (Water)): > 64 µg/mL
SMILES: CCCCOC(=O)N(CC(=O)Nc1cc(N(C)C)c2c(c1O)C(=O)C1=C(O)[C@]3(O)C(=O)C(C(N)=O)=C(O)[C@@H](N(C)C)[C@@H]3C[C@@H]1C2)C(C)(C)C [Example 58, butyl 2-{[(5aR,6aS,7S,10aS)-9-(aminocarbonyl)-4,7-bis(dimethylamino)-1,8,10a,11-tetrahydroxy-10,12-dioxo-5,5a,6,6a,7,10,10a,12-octahydrotetracen-2-yl]amino}-2-oxoethyl(tert-butyl)carbamate]
